What all share (type): biochemical
The target in assay [1] is T1, Free LacZ (E. coli beta-galactosidase), N-terminal His6, fused to S2CP(30); LacZ-S2CP(30), SEQ ID NO: 103 (Escherichia coli, UniProt P00722).
T1 construct: homotetramer
Description: Steady-state kinetics of free LacZ (ONPG hydrolysis). The conditions noted are these: free LacZ 10 nM; ONPG 0.050 to 1.5 mM; TBS-50/350 pH 8.0, 1 mM MgCl2; mean with standard error, triplicates. On the procedure: (§1) For APEX2, all reagents were made to the appropriate working concentrations using TBS-50/350 pH 8.0. Working solutions of guaiacol and H2O2, both at 10 mM, were prepared on the day of assay. The guaiacol solution was shaken vigorously at 30° C. to ensure complete dissolution before equilibration back to room temperature. The assay concentration for APEX2 was 10 nM, H2O2 1 mM and that for guaiacol ranged from 0.20 to 2.0 mM. Total reaction volume was 200 μL. Reactions were monitored by the absorbance of tetraguaiacol formed at 470 nm using a BioTek Synergy™ HT microplate reader. […] This time point was taken for initial rate, V0, measurement. Kinetic constants were obtained using non-linear least square Michaelis-Menten fitting in GraphPad Prism software.
For steady-state kinetics of LacZ, all reagents were made to the appropriate working concentrations using TBS-50/350 pH 8.0 supplemented with 1 mM MgCl2. Working solutions of ONPG at 10 mM were prepared from a 50 mM stock solution in DMSO on the day of assay. The assay concentration for LacZ was 10 nM and that for ONPG (ortho-nitrophenyl-β-galactoside) ranged from 0.050 to 1.5 mM. Total reaction volume was 100 μL. Hydrolysis of ONPG was tracked by absorbance measurements at 405 nm. […]

Assay [2] addresses T2, LacZ + shell: LacZ (E. coli beta-galactosidase), N-terminal His6, fused to S2CP(30), SEQ ID NO: 103, encapsulated in Cso-BMC (Cso-PSIIH) shell (Escherichia coli, UniProt P00722).
T2 construct: homotetramer
Description: Steady-state kinetics of Cso-BMC encapsulated LacZ (ONPG hydrolysis). On the procedure:
as §1
For steady-state kinetics of LacZ, all reagents were made to the appropriate working concentrations using TBS-50/350 pH 8.0 supplemented with 1 mM MgCl2. Working solutions of ONPG at 10 mM were prepared from a 50 mM stock solution in DMSO on the day of assay. The assay concentration for LacZ was 10 nM and that for ONPG (ortho-nitrophenyl-β-galactoside) ranged from 0.050 to 1.5 mM. Total reaction volume was 100 μL. Hydrolysis of ONPG was tracked by absorbance measurements at 405 nm.
To probe the capacity of the Cso-BMC for encasing enzymes of considerably different molecular sizes, an evolved pea cytosolic ascorbate peroxidase (APEX2), a 27.0 kDa monomer [Lam et al., Nature Methods 12(1): 51-54 (2015)], and E. coli beta-galactosidase (LacZ), a 466.0 kDa homotetramer, were chosen for encapsulation [Golan, et al., Biochimica et Biophysica Acta (BBA)—Bioenergetics, 1293(2): 238-242; Lam et al., Nature Methods 12(1): 51-54 (2015)]. […] Enzymes were also N-terminally tagged with the hexahistidine (Hiss) tag to facilitate downstream removal of unencapsulated enzymes that might co-purify with shells (Nichols, Kennedy, & Tullman-Ercek, 2019). Cso-PSIIH shells co-expressed with enzymes were constructed and purified. SDS-PAGE analysis and Western blotting confirmed the presence of the target enzymes in shell samples (FIG. 18A-B) and the average copy numbers of enzymes per shell were estimated by Coomassie blue densitometry (Table 8) [Hagen, A., et al., Nature Communications 9: 2881 (2018); Nichols et al., Methods in Enzymology, 617, 155-186 (2019)].
Encapsulation of an enzyme into a protein shell is known to alter the enzyme's catalytic properties in some cases. To probe how encapsulation by the Cso-BMC might affect the catalytic efficiencies of APEX2 and LacZ, we performed steady-state kinetics of both free and encapsulated enzymes and fitted the data to the Michaelis-Menten model to obtain the turnover number (kcat), Michaelis-Menten constant (KM), and catalytic efficiency (kcat/KM) (Table 8, FIG. 19). […]

For assay [3], the target named is T3, APEX2 + shell: APEX2 (evolved pea cytosolic ascorbate peroxidase), N-terminal His6, fused to S2CP(30), SEQ ID NO: 110, encapsulated in Cso-BMC (Cso-PSIIH) shell (Glycine max, UniProt Q43758, A134P/E112K/K14D/W41F).
T3 sequence (Q43758 with tags, fused parts or gaps A134P/E112K/K14D/W41F): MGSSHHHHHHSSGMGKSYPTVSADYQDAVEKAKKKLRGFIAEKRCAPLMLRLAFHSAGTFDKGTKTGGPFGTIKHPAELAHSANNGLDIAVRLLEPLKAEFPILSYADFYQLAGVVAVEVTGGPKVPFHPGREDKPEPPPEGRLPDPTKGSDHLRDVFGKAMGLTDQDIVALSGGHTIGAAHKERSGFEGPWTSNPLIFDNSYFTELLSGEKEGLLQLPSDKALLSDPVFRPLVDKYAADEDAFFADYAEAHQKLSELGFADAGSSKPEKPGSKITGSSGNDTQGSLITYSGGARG
Description: Steady-state kinetics of Cso-BMC encapsulated APEX2 (guaiacol oxidation). The conditions noted are these: decreased to. On the procedure: as §1
To probe the capacity of the Cso-BMC for encasing enzymes of considerably different molecular sizes, an evolved pea cytosolic ascorbate peroxidase (APEX2), a 27.0 kDa monomer [Lam et al., Nature Methods 12(1): 51-54 (2015)], and E. coli beta-galactosidase (LacZ), a 466.0 kDa homotetramer, were chosen for encapsulation [Golan, et al., Biochimica et Biophysica Acta (BBA)—Bioenergetics, 1293(2): 238-242; Lam et al., Nature Methods 12(1): 51-54 (2015)]. […]

[4] abbreviates: encapsulated LacZ 10 nM, ONPG 0.050 to 1.5 mM, TBS-50/350 pH 8.0, 1 mM MgCl2, mean with standard error, triplicates.

The text below walks through data of patent publication US12667614B2, “Bacterial microcompartment virus-like particles” (National University of Singapore, priority 2020, dated 2026).

As a reminder, the kcat is the maximal rate divided by the concentration of active sites. In general, Km refers to the substrate concentration at which the rate is half of its maximum.

Structures are written as SMILES.

T2 sequence (P00722 other isoform, or with tags, fused parts or gaps): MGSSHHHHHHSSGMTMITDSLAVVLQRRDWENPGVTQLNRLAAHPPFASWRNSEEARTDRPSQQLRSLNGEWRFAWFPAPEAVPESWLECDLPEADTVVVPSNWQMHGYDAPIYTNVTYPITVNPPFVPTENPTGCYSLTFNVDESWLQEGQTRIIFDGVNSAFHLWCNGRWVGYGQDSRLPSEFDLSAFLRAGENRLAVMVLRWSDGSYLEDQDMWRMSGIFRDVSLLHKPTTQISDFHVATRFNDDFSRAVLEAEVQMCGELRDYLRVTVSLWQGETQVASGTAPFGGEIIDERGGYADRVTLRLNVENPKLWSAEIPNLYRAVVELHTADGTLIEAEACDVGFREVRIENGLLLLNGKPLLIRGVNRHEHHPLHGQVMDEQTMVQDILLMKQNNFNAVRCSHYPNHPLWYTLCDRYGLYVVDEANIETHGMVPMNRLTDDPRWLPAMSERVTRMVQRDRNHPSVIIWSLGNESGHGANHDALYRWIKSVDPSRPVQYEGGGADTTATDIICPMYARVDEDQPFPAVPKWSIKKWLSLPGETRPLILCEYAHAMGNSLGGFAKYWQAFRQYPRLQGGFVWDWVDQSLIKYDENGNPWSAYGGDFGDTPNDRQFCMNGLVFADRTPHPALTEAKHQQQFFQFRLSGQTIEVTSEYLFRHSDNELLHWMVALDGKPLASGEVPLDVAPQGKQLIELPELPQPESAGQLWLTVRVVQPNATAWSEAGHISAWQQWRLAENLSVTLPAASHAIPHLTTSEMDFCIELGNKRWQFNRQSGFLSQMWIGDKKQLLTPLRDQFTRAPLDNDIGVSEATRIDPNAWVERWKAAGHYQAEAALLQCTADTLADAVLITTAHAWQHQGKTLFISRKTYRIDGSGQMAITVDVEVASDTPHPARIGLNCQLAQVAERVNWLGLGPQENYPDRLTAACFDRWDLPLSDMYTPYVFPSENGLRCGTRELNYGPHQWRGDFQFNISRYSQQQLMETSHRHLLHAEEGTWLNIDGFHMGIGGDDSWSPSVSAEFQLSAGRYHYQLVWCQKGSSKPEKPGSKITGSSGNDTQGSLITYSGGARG
T1 sequence (P00722 other isoform, or with tags, fused parts or gaps): as above

As to `O=[N+]([O-])c1ccccc1O[C@@H]1O[C@H](CO)[C@H](O)[C@H](O)[C@H]1O` [ONPG, ortho-nitrophenyl-β-galactoside], in assay [1], the kcat stood at 258 ± 17 s⁻¹ and the kcat/KM was 15.2 ± 2.05 × 10^5 (s^−1 · M^−1). Besides, the “kcat/KM of encapsulated LacZ compared with the free enzyme” value in assay [2] (comparison in words with free LacZ) is “not significantly different from the free enzyme”. Moreover, in assay [2] (setting [4]), the Km was determined as 140 ± 20 µM, the turnover number (kcat) was determined as 200 ± 14 s⁻¹ and the kcat/KM is on record as 14.3 ± 2.27 × 10^5 (s^−1 · M^−1).

For the compound `COc1ccccc1O` [guaiacol], in assay [3], the “kcat/KM of encapsulated APEX2 relative to the free enzyme” value is recorded as “approximately 30%”.
